Assay results from US20240308976A1, “COMPOUNDS THAT MEDIATE PROTEIN DEGRADATION AND USES THEREOF” (Monte Rosa Therapeutics, Inc., priority 2021, published 2024).

Legend:
CRBN-DDB1 = CRBN-DDB1 (Homo sapiens, UniProt Q96SW2); experiment: Compound binding to CRBN by HTRF assay; conditions: CRBN-DDB1 2.5 nM, Cy5-Thalidomide 100 nM, 30 min at ambient temperature; read-out: HTRF Class (Cereblon binding, HTRF IC50)
Protocol: Example 146: Compound Binding to CRBN by HTRF Assay
Compound activity was monitored in a Homogenous Time-Resolved Fluorescence (HTRF) assay using 1-[5-({2-[2-(2-{[2-(2,6-dioxopiperidin-3-yl)-1,3-dioxo-2,3-dihydro-1H-isoindol-4-yl]oxy}acetamido)ethoxy]ethyl}carbamoyl)pentyl]-3,3-dimethyl-2-[(1E,3E)-5-[(2E)-1,3,3-trimethyl-5-sulfo-2,3-dihydro-1H-indol-2-ylidene]penta-1,3-dien-1-yl]-3H-indol-1-ium-5-sulfonate as a fluorescent probe. Biochemical assays were conducted in Greiner white 384 well HiBase plates (Cat. No 784075-25) in 10 μL total volume. A one pot detection solution of CRBN-DDB1 (2.5 nM), Anti-His Terbium Cryptate Gold (1X, PerkinElmer Cat. #: 61HI2TLB), and Cy5-Thalidomide (100 nM, Tenova Cat.: T52461) was prepared in 20 mM HEPES, 20 mM NaCl, 0.2 mM TCEP, 0.2 mM EDTA, and 0.005% Tween20 was dispensed to each assay plate. Compounds were stored in dry, ambient temperatures at 10 mM. A 10-point, 1:3 dilution series was prepared from 10 mM stock concentrations in Echo-compatible LDV plates. 10 nL of each compound dilution series was dispensed into assays wells using an Echo 650 (Labcyte inc. USA). 10 nL of 10 mM Lenalidomide was transferred into the active-control wells for the assay and 10 nL of DMSO was transferred into the neutral-control wells. The assay was then allowed to incubate for 30 min at ambient temperature after transferring compound. Plate measurements were taken on a Pherastar FSX (BMG Labtech, Germany) using the HTRF Red filter (Ex. 337 nm, em1: 620 nm, em2: 665 nm) (Flashes: 50, Integration time: 60-400 us, Z-height: 10 mm, Ratio-multiplier: 10,000). The HTRF signal was then subsequently normalized to the neutral and active controls. Analysis and IC50 values were derived using KNIME analytics (KNIME Zurich) transformation and fitting within Collaborative Drug Discovery (Collaborative Drug Discovery USA). Ki was derived from the geometric mean of the IC50 values using the Cheng-Prustoff transformation.
(§1) In Table 2, each compound is assigned a class (HTRF class) indicating the ability for Cereblon binding by means of their HTRF IC50 values according to […]: A, B, C or D. According to the code, A represents an IC50 value of ≤100 nM, B represents an IC50 value>100 nM and ≤1000 nM, C represents an IC50 value>1000 nM. IF Class assigns each compound a code indicating the ability for GSPT1 degradation: A, B or C. According to the code, A represents a DC50 value of ≤30 nM, B represents a DC50 value>30 nM and ≤300 nM and C represents a DC50 value of >300 nM.

GSPT1 = target: T1, GSPT1 (Homo sapiens, UniProt P15170+Q96SW2); experiment: Immunofluorescence assay for activity to degrade GSPT1 in CAL-51 cells; type: cell-based; conditions: 6 h treatment, read-out: IF Class (GSPT1 degradation, DC50)
T1 construct: CAL-51 cells were purchased from DSMZ (cat. Number ACC302); host or cells: CAL-51
Protocol: Example 147: Compound Activity by Immunofluorescence Assay
The representative compounds were tested in an immunofluorescence assay for their activity to degrade GSPT1. CAL-51 cells were purchased from DSMZ (cat. Number ACC302), sub-cultured in 90% Dulbecco's MEM (4.5 g/L glucose, Gibco 11965)+10% heat inactivated FBS (BioConcept, 2-01F136I) and incubated at 37° C., 5% CO2. For the assay imaging microtiter plate Cell Carrier 96 Ultra (Perkin Elmer 6055302) were pre-coated with Fibronectin (Sigma F085, 30 μL at 0.2 μg/mL) in PBS (100 μL, Gibco 14190) for 45 min at room temperature, rinsed with PBS and CAL-51 cells (30K cells/well) were plated and let to adhere overnight. Cells were treated with compounds typically using a serial dilution ranging from 30 μM to 0.1 nM for 6 h. Compounds were stored at 10 mM DMSO stocks. Vehicle (DMSO), positive (CC-885, 10 μM) and rescue controls (positive control plus 0.2 μM bortezomib) were also included at this stage. Cells were subsequently rinsed with PBS and fixed in 10% Formalin solution (50 μL, Sigma HT5011)) for 20 mins at room temperature. Following three consecutive PBS washes (100 μL), cells were permeabilized in 0.1% Triton X-100 in PBS (Sigma 93443, 50 μL) for 15 min. at room temperature. Following three further PBS washes, 50 μL blocking buffer (1% BSA, Sigma A4503, in PBS) was added for 45 min for signal-to noise reduction. Primary antibody (human GSPT1, Sigma HPA052488) was diluted in blocking buffer (dil.1/300, 35 μL/well) and incubated with the cells overnight at 4° C. After three PBS washes, Alexa-fluor 488 coupled secondary antibodies (Invitrogen, A32731, dil. 1/1000), Alexa-fluor 647-Phalloidin (Invitrogen, A22287, dil. 1/200) and DAPI (Thermo, #62248, dil. 1/1000) were diluted in blocking buffer and incubated with the samples for 2 h at room temperature. After three final PBS washes, samples were conserved in 100 μL PBS in the dark, until measurement. Image acquisition was performed on the Operetta High-Content Imager (Perkin-Elmer). Fluorescence intensity of […] (GSPT1), Alexa-Fluor 647 (Actin) and DAPI (Nucleus) were measured. For the determination of GSPT1 DC50 values, a custom algorithm implemented in the PerkinElmer image analysis software Harmony-Acapella® was developed. After user-defined setting of adjustment parameters, the analysis was run identically without human intervention for all image fields. DAPI staining of the nuclei was used to determine the location of cells using standard nuclei detection modules. Segmentation artifacts were removed by threshold-based filters for area, roundness and intensity. The outline of the cells was determined analogously from the sum of the normalized, smoothed DAPI and Actin channel, starting from each nucleus. The Alexa-Fluor 488 (GSPT1) signal intensity in each cell was finally measured, in order to obtain a Mean intensity per cell. GSPT1 degradation (DC50) was calculated after normalization to controls and data import in CDD vault Database, using non-linear regression.
as §1

CRBN-DDB1, sequence (Q96SW2 whole entry): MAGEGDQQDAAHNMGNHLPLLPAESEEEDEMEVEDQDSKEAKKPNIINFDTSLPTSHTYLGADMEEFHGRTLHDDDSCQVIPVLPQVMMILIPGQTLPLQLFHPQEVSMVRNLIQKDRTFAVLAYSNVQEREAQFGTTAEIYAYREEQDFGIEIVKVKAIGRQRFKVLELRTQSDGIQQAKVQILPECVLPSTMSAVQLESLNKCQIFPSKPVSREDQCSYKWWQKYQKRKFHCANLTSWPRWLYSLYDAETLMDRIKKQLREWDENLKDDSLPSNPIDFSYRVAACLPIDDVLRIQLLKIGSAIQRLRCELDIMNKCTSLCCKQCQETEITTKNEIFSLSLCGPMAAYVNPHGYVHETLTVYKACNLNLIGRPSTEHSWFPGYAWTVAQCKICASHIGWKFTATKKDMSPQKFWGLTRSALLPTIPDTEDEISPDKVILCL
CRBN-DDB1, sequence (Q16531 whole entry partner): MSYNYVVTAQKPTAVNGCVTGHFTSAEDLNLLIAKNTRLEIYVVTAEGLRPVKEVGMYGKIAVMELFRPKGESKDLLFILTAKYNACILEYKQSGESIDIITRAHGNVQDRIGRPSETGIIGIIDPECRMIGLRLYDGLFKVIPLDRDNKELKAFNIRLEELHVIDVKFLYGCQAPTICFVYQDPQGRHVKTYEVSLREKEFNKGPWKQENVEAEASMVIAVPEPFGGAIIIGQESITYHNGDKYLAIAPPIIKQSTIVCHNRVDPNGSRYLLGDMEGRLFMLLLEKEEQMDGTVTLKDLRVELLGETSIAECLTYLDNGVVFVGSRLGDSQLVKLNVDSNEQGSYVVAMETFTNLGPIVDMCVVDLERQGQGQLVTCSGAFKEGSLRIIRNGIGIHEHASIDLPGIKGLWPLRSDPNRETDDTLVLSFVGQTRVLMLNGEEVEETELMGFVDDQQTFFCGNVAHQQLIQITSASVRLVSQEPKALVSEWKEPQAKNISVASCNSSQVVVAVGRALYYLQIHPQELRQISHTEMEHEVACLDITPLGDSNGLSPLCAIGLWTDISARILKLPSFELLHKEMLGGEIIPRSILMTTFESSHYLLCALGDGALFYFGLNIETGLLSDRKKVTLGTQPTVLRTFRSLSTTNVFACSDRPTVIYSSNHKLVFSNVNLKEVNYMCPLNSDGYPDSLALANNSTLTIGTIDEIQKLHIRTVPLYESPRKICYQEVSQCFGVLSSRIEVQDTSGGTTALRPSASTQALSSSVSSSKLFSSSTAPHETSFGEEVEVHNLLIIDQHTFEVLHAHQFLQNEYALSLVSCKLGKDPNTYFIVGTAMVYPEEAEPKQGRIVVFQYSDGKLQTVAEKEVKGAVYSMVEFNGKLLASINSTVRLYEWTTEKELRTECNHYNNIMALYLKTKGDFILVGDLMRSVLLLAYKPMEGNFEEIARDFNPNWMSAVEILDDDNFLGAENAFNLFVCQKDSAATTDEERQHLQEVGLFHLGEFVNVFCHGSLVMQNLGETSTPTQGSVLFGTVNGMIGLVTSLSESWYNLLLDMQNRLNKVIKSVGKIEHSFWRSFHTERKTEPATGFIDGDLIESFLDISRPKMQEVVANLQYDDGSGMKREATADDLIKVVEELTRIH
T1 sequence (P15170 whole entry): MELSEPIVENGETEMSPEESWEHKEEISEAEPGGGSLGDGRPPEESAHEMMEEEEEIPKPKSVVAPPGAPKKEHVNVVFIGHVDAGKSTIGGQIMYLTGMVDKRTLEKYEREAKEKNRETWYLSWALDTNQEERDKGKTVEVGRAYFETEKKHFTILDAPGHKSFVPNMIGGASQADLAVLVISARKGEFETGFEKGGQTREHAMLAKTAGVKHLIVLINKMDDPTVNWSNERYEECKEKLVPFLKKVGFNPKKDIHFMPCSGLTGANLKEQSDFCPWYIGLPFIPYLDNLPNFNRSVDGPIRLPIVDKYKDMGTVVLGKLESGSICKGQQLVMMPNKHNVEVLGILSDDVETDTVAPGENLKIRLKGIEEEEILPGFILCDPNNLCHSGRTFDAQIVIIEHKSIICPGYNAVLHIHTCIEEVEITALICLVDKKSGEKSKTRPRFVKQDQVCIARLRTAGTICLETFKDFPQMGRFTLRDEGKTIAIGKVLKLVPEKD
T1 sequence (Q96SW2 whole entry): as the sequence (Q96SW2 whole entry) above
T1 sequence (Q16531 2-1140 partner limits assumed): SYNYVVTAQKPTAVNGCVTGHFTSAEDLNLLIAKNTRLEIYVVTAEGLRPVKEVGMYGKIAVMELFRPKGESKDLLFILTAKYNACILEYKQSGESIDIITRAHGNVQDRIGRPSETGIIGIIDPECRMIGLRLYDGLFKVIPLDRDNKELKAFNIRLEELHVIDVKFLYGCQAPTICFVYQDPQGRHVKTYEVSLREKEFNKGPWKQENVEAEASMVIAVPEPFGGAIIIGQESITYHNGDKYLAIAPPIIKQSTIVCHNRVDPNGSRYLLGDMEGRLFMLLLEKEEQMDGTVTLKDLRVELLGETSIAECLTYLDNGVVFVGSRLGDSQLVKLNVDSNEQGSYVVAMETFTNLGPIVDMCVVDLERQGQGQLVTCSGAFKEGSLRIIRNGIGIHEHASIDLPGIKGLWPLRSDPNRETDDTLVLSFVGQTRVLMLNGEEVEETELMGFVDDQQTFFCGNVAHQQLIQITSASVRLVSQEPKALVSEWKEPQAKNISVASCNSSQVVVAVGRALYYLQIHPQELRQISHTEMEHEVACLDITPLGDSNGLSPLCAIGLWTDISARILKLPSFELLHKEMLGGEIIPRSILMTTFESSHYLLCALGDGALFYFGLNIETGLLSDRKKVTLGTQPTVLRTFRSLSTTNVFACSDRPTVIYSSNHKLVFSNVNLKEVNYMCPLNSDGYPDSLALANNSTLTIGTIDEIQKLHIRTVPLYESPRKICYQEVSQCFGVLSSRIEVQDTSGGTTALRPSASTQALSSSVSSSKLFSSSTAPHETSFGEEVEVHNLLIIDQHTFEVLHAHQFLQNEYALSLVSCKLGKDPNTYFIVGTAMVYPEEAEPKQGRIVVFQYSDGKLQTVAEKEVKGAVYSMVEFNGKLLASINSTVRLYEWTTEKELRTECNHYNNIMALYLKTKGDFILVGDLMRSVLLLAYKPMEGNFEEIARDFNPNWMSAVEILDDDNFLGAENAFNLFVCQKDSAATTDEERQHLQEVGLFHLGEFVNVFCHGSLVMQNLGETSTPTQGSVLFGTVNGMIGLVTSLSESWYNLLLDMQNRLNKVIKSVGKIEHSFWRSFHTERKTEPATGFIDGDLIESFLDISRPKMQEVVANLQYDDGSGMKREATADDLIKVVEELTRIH

SMILES	IC50 (CRBN-DDB1)	DC50 (GSPT1)
Cc1ccc(NC(=O)NC2CN(c3cc(F)c(C4CCC(=O)NC4=O)c(F)c3)C2)cc1Cl (stereo not drawn) [Compound 1, 1-(3-chloro-4-methylphenyl)-3-(1-(4-(2,6-dioxopiperidin-3-yl)-3,5-difluorophenyl)azetidin-3-yl)urea]	100 to 1000 nM	≤ 30 nM
Cc1cc(C)cc(NC(=O)OC2CN(c3cc(F)c(C4CCC(=O)NC4=O)c(F)c3)C2)c1 (stereo not drawn) [Compound 4, 1-(4-(2,6-dioxopiperidin-3-yl)-3,5-difluorophenyl)azetidin-3-yl (3,5-dimethyl phenyl)carbamate]	100 to 1000 nM	30 to 300 nM
Cc1ccc(NC(=O)NC2CN(c3ccc(C4CCC(=O)NC4=O)c(F)c3)C2)cc1Cl (stereo not drawn) [Compound 7, 1-(3-chloro-4-methylphenyl)-3-(1-(4-(2,6-dioxopiperidin-3-yl)-3-fluorophenyl)azetidin-3-yl)urea]	100 to 1000 nM	30 to 300 nM
Cc1ccc(NC(=O)OC2CN(c3ccc(C4CCC(=O)NC4=O)c(F)c3)C2)cc1Cl (stereo not drawn) [Compound 8, 1-(4-(2,6-dioxopiperidin-3-yl)-3-fluorophenyl) azetidin-3-yl(3-chloro-4-methylphenyl)carbamate]	100 to 1000 nM	≤ 30 nM
Cc1c(Cl)cc(NC(=O)NC2CN(c3cc(F)c(C4CCC(=O)NC4=O)c(F)c3)C2)cc1CN1CC2CC1CO2 (stereo not drawn) [Compound 9, 1-(3-(2-oxa-5-azabicyclo[2.2.1]heptan-5-ylmethyl)-5-chloro-4-methylphenyl)-3-(1-(4-(2,6-dioxopiperidin-3-yl)-3,5-difluorophenyl)azetidin-3-yl)urea]	≤ 100 nM	≤ 30 nM
Cc1cc(C)cc(NC(=O)NC2CN(c3cc(F)c(C4CCC(=O)NC4=O)c(F)c3)C2)c1 (stereo not drawn) [Compound 11, 1-(3,5-dimethylphenyl)-3-(1-(4-(2,6-dioxopiperidin-3-yl)-3,5-difluorophenyl)azetidin-3-yl)urea]	100 to 1000 nM	≤ 30 nM
CC(C)(C)c1ccc(NC(=O)NC2CN(c3cc(F)c(C4CCC(=O)NC4=O)c(F)c3)C2)cn1 (stereo not drawn) [Compound 12, 1-(6-(tert-butyl)pyridin-3-yl)-3-(1-(4-(2,6-dioxopiperidin-3-yl)-3,5-difluorophenyl)azetidin-3-yl)urea]	≤ 100 nM	≤ 30 nM
O=C1CCC(c2c(F)cc(N3CC(OC(=O)Nc4cccc(OC(F)F)c4)C3)cc2F)C(=O)N1 (stereo not drawn) [Compound 14, 1-(4-(2,6-dioxopiperidin-3-yl)-3,5-difluorophenyl)azetidin-3-yl (3-(difluoromethoxy)phenyl)carbamate]	100 to 1000 nM	≤ 30 nM
O=C1CCC(c2c(F)cc(N3CC(NC(=O)Nc4cccc(OC(F)F)c4)C3)cc2F)C(=O)N1 (stereo not drawn) [Compound 15, 1-(3-(difluoromethoxy)phenyl)-3-(1-(4-(2,6-dioxopiperidin-3-yl)-3,5-difluorophenyl)azetidin-3-yl)urea]	≤ 100 nM	30 to 300 nM
CC(C)N1CCC(NC(=O)NC2CN(c3cc(F)c(C4CCC(=O)NC4=O)c(F)c3)C2)C1 (stereo not drawn) [Compound 120, 1-(1-(4-(2,6-dioxopiperidin-3-yl)-3,5-difluorophenyl)azetidin-3-yl)-3-(1-isopropylpyrrolidin-3-yl) urea]		> 300 nM
CN1CCC(NC(=O)NC2CN(c3cc(F)c(C4CCC(=O)NC4=O)c(F)c3)C2)C1 (stereo not drawn) [Compound 121, 1-(1-(4-(2,6-dioxopiperidin-3-yl)-3,5-difluorophenyl)azetidin-3-yl)-3-(1-methylpyrrolidin-3-yl)urea]		> 300 nM

Other lines, results leading:

IC50 (CRBN-DDB1)	DC50 (GSPT1)	SMILES
100 to 1000 nM	≤ 30 nM	Cc1ccc(NC(=O)OC2CN(c3cc(F)c(C4CCC(=O)NC4=O)c(F)c3)C2)cc1Cl (stereo not drawn) [Compound 2, 1-(4-(2,6-dioxopiperidin-3-yl)-3,5-difluorophenyl)azetidin-3-yl(3-chloro-4-methylphenyl) carbamate]
100 to 1000 nM	≤ 30 nM	O=C1CCC(c2c(F)cc(N3CC(OC(=O)Nc4cccc(OC(F)(F)F)c4)C3)cc2F)C(=O)N1 (stereo not drawn) [Compound 3, 1-(4-(2,6-dioxopiperidin-3-yl)-3,5-difluorophenyl)azetidin-3-yl(3-(trifluoromethoxy)phenyl) carbamate]
≤ 100 nM	30 to 300 nM	Cc1c(Cl)cc(NC(=O)OC2CN(c3cc(F)c(C4CCC(=O)NC4=O)c(F)c3)C2)cc1CN1CCOCC1 (stereo not drawn) [Compound 5, 1-(4-(2,6-dioxopiperidin-3-yl)-3,5-difluorophenyl) azetidin-3-yl(3-chloro-4-methyl-5-(morpholinomethyl)phenyl)carbamate]
100 to 1000 nM	30 to 300 nM	Cc1ccc(NC(=O)OC2CN(c3cc(F)c(C4CCC(=O)NC4=O)c(F)c3)C2)cc1OC(F)F (stereo not drawn) [Compound 6, 1-(4-(2,6-dioxopiperidin-3-yl)-3,5-difluoropheny) azetidin-3-yl(3-(difluoromethoxy)-4-methylphenyl) carbamate]
≤ 100 nM	≤ 30 nM	C[C@@H]1CCCN1c1ccc(NC(=O)OC2CN(c3cc(F)c(C4CCC(=O)NC4=O)c(F)c3)C2)cn1 (stereo partly drawn) [Compound 10, 1-(4-(2,6-dioxopiperidin-3-yl)-3,5-difluorophenyl)azetidin-3-yl (6-((R)-2-methylpyrrolidin-1-yl)pyridin-3-yl)carbamate]
≤ 100 nM	≤ 30 nM	Cc1c(Cl)cc(NC(=O)NC2CN(c3cc(F)c(C4CCC(=O)NC4=O)c(F)c3)C2)cc1OCCN1CCOCC1 (stereo not drawn) [Compound 13, 1-(3-chloro-4-methyl-5-(2-morpholinoethoxy)phenyl)-3-(1-(4-(2,6-dioxopiperidin-3-yl)-3,5-difluorophenyl)azetidin-3-yl)urea]
	30 to 300 nM	CCC(C)CNC(=O)OC1CN(c2cc(F)c(C3CCC(=O)NC3=O)c(F)c2)C1 (stereo not drawn) [Compound 122, 1-(4-(2,6-dioxopiperidin-3-yl)-3,5-difluorophenyl) azetidin-3-yl (2-methylbutyl)carbamate]
